# Activity calls are given as the source filed them. No cut-off for these calls is given here.
# Experiments:
# [1] = target: T1, Matrilysin (Homo sapiens) (UniProt P09237); assay: Inhibition of MMP7
# T1 sequence (whole entry): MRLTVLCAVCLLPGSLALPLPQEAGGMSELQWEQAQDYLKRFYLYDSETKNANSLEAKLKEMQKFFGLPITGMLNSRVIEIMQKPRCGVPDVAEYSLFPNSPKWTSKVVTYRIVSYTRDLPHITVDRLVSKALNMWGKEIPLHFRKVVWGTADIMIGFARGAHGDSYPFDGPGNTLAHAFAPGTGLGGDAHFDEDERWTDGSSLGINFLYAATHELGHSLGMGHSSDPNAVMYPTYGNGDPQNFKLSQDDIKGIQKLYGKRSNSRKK
# [2] = target: T2, Interstitial collagenase (Homo sapiens) (UniProt P03956); assay: Inhibition of MMP1
# T2 sequence (whole entry): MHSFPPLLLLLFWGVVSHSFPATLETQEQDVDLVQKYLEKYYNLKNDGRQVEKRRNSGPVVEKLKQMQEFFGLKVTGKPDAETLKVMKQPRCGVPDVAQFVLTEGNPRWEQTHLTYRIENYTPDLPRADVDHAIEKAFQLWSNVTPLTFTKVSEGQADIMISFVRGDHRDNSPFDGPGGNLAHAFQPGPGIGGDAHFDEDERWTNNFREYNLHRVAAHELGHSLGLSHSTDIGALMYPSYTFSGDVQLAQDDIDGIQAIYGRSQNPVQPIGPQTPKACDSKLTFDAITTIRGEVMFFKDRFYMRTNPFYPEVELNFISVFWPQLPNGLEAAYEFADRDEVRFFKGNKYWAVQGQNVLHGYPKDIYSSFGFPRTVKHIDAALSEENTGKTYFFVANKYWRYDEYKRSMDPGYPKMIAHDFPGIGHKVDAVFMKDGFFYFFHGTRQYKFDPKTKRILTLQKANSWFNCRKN
# [3] = target: T3, Matrix metalloproteinase-17 (Homo sapiens) (UniProt Q9ULZ9); assay: Inhibition of MMP17
# T3 sequence (whole entry): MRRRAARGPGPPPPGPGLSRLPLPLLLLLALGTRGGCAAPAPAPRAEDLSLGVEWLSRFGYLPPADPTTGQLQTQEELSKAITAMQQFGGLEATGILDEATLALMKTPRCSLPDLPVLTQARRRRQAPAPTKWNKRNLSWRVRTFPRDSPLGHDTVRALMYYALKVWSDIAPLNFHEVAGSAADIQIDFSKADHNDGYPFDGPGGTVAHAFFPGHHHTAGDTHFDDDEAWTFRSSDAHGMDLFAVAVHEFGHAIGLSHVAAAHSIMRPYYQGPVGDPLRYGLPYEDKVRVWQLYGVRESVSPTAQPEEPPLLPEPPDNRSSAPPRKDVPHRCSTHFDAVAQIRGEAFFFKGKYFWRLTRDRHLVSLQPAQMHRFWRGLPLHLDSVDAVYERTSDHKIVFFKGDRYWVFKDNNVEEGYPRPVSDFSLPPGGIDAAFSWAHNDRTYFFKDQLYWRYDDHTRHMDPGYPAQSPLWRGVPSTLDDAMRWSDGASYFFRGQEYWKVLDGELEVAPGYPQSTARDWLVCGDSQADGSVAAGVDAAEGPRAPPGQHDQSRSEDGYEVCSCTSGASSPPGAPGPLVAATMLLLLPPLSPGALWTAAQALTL
# [4] = target: Matrix metalloproteinase-14 (Homo sapiens, UniProt P50281); assay: Inhibition of MMP14
# [5] = target: Matrix metalloproteinase-9 (Homo sapiens, UniProt P14780); assay: Inhibition of MMP9
# Neutrophil collagenase = Neutrophil collagenase (Homo sapiens, UniProt P22894); assay: Inhibition of MMP8
# [6] = target: Macrophage metalloelastase (Homo sapiens, UniProt P39900); assay: Inhibition of MMP12
# [7] = Selectivity for MMP13 over MMP3
# [8] = Selectivity for MMP13 over MMP9
# [9] = Selectivity for MMP13 over MMP14
# [10] = Selectivity for MMP13 over MMP1
# [11] = Selectivity for MMP13 over MMP8
# [12] = Selectivity for MMP13 over MMP12
# [13] = Selectivity for MMP13 over MMP2
# Collagenase 3 [14] = target: T4, Collagenase 3 (Homo sapiens, UniProt P45452); assay: Inhibition of MMP13
# [15] = target: Disintegrin and metalloproteinase domain-containing protein 33 (Homo sapiens, UniProt Q9BZ11); assay: Inhibition of ADAM33
# [16] = Selectivity for bovine aggrecanase over MMP2
# [17] = Inhibition of bovine aggrecanase; design: species or system Bos taurus
# [18] = Selectivity for bovine aggrecanase over MMP1
# [19] = target: 72 kDa type IV collagenase (Homo sapiens, UniProt P08253)
# Matrilysin = target: T5, Matrilysin (Homo sapiens, UniProt P09237)
# T5 sequence (P09237 whole entry): T1 sequence (whole entry)
# Stromelysin-1 = Stromelysin-1 (Homo sapiens, UniProt P08254)
# [20] = target: Disintegrin and metalloproteinase domain-containing protein 9 (Homo sapiens, UniProt Q13443)
# Interstitial collagenase = target: T6, Interstitial collagenase (Homo sapiens, UniProt P03956)
# T6 sequence (P03956 whole entry): T2 sequence (whole entry)
# Collagenase 3 [21] = target: T4, Collagenase 3; assay: Inhibition of MMP13 at 10 ug/mL
# Chain of Matrix metalloproteinase-9 (P14780 whole entry): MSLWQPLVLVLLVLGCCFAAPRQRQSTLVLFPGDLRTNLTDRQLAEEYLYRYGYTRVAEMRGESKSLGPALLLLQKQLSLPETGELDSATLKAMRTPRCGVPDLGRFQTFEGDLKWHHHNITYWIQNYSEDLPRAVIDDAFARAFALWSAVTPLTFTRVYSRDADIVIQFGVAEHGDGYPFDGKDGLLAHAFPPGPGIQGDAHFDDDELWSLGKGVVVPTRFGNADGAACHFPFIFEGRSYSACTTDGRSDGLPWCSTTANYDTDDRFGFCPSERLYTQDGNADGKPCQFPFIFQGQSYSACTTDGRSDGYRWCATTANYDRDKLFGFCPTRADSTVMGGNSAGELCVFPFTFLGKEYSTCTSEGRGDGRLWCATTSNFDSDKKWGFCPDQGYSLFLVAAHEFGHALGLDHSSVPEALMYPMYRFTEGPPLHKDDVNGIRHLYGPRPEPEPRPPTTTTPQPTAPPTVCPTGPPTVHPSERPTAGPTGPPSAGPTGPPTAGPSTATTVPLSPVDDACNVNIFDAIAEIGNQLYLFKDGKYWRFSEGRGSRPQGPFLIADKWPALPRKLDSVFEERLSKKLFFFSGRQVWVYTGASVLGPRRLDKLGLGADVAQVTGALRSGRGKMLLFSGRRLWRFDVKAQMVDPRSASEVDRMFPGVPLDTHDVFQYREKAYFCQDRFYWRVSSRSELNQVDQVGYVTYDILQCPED
# Chain of Disintegrin and metalloproteinase domain-containing protein 33 (Q9BZ11 whole entry, the tested form may be a part): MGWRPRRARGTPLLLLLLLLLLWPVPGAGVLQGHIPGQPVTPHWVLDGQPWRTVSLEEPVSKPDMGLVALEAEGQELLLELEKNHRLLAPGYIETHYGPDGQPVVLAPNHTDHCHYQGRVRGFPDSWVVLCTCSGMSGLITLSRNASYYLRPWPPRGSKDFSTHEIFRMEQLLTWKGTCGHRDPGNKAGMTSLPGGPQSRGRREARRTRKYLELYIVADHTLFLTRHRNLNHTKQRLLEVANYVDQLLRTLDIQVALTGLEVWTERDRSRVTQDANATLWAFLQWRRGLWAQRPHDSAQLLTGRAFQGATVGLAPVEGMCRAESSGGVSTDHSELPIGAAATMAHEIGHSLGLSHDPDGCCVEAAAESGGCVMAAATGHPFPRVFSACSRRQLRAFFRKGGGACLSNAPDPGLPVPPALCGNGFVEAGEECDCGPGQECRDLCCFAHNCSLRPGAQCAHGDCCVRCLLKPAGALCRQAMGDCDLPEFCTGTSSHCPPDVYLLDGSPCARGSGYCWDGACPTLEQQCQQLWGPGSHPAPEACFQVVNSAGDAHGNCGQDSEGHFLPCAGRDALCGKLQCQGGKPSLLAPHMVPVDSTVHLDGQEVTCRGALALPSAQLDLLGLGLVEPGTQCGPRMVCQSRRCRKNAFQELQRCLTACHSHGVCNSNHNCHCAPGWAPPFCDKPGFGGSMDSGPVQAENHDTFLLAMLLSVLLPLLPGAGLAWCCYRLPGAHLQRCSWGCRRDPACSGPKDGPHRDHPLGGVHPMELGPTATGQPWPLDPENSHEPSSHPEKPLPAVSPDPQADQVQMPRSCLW
# Chain of 72 kDa type IV collagenase (P08253 whole entry): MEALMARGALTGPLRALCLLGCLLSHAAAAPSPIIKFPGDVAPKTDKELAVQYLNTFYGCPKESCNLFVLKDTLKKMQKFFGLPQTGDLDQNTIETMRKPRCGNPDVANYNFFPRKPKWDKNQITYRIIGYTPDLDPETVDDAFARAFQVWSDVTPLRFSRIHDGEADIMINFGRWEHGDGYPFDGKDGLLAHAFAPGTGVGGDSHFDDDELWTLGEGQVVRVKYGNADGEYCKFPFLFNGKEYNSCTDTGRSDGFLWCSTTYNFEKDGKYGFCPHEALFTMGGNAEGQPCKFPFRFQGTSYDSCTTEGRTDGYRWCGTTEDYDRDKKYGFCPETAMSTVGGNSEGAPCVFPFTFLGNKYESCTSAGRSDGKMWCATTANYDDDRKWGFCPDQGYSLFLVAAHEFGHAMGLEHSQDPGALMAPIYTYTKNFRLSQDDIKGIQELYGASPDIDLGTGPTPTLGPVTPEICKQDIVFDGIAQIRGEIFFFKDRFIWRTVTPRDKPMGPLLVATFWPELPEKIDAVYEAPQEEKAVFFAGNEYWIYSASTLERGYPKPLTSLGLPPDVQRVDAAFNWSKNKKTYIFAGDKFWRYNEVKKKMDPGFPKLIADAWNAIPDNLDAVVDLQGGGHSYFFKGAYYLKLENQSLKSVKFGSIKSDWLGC
# Chain of Macrophage metalloelastase (P39900 106-470 limits assumed): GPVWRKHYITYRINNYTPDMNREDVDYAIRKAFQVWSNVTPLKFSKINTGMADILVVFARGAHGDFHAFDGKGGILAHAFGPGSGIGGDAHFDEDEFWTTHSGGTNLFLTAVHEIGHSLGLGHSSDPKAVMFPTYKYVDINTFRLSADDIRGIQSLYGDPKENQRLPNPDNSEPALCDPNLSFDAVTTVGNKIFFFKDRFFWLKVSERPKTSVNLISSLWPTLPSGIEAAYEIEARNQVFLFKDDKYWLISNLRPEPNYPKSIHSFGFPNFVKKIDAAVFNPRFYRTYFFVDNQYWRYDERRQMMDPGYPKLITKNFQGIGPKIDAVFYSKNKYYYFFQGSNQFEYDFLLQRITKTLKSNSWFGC
# Chain of Disintegrin and metalloproteinase domain-containing protein 9 (Q13443 whole entry, the tested form may be a part): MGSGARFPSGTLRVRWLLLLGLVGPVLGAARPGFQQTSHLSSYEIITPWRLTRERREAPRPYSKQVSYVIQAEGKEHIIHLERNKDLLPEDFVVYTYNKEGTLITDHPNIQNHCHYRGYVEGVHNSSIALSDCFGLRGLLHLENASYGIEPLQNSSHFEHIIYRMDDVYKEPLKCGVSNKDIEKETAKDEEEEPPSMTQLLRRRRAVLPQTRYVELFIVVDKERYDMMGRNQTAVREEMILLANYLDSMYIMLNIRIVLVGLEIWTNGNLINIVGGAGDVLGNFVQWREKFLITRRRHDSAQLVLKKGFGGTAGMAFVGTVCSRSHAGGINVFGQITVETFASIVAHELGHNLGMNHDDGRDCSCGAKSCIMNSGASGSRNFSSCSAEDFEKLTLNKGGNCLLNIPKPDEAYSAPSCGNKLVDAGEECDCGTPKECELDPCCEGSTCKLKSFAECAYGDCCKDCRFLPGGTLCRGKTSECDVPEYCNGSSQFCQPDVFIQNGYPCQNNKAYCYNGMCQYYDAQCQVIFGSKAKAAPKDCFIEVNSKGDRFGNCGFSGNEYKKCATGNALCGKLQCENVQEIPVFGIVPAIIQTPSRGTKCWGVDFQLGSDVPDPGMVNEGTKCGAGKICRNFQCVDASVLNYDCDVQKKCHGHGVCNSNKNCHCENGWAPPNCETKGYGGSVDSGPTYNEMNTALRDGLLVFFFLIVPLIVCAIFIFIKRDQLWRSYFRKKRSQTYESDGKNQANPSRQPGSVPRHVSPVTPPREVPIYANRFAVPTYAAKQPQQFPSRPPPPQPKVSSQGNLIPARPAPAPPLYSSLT
# Chain of Stromelysin-1 (P08254 whole entry, the tested form may be a part): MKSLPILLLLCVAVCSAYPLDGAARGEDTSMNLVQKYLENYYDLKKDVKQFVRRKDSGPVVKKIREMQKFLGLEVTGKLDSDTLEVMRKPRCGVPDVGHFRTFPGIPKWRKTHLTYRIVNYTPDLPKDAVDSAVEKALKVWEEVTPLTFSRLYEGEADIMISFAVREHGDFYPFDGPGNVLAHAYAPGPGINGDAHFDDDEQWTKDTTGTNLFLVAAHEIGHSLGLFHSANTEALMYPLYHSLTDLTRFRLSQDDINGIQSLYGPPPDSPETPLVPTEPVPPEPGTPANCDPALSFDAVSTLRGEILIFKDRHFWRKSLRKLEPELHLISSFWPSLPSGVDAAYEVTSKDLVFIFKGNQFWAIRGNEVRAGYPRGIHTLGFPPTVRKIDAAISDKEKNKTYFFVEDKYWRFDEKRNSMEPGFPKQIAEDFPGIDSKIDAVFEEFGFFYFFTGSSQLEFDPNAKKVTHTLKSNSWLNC
# Chain of Neutrophil collagenase (P22894 101-467 limits assumed): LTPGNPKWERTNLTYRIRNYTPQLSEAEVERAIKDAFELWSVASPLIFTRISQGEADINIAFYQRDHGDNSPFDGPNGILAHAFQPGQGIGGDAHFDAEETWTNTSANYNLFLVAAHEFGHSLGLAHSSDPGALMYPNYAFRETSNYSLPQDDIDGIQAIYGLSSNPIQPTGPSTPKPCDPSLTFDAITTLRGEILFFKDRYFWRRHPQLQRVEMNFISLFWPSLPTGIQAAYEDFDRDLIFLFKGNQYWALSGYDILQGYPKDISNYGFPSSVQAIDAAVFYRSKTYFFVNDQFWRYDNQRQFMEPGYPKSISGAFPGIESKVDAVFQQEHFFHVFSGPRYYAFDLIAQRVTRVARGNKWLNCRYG
smiles,measurement,setting,value
COc1ccc(CNC(=O)c2cc3c(=O)n(Cc4ccc(C(=O)O)cc4)cnc3cn2)cc1,Activity,[1],inactive
same,Activity,[2],inactive
same,Activity,[3],inactive
same,Activity,[4],inactive
same,Activity,[5],inactive
same,Activity,Neutrophil collagenase,inactive
same,Activity,[6],inactive
COCCC1(Oc2ccc(Oc3ccc(-c4nc(-c5ccc(C#N)cc5)co4)cc3)cc2)C(=O)NC(=O)NC1=O,fold change (FC),[7],17000
same,fold change (FC),[8],540
same,fold change (FC),[9],540
same,fold change (FC),[10],2400
same,fold change (FC),[11],394
same,fold change (FC),[12],619
same,fold change (FC),[13],397
same,IC50,Collagenase 3 [14],0.00036 µM
Cc1cc(COc2ccc([C@]3(C)CCN([C@H](C)C(=O)NO)C3=O)cc2)c2ccccc2n1,IC50,tissue or blood,0.00035 µM
same,Ki,[15],0.015 µM
CS(=O)(=O)N1CCC([C@H](C(=O)NO)[C@@H](Cc2cccc(O)c2)C(=O)N[C@H]2c3ccccc3C[C@H]2O)CC1,fold change (FC),[16],> 100
same,IC50,[17],0.003 µM
same,fold change (FC),[18],> 100
COC(=O)N1CC2(CC2)C[C@H](C(=O)NO)[C@H]1C(=O)N1CC=C(c2ccccc2)CC1,IC50,[19],0.035 µM
same,IC50,Matrilysin,> 5 µM
same,IC50,Stromelysin-1,3.56 µM
same,IC50,[20],> 5 µM
same,IC50,[5],0.304 µM
same,IC50,Interstitial collagenase,> 5 µM
same,IC50,[15],1.03 µM
O=C(NCCCCN1CCOCC1)c1cc2ccccc2o1,Activity,Collagenase 3 [21],inactive

# — ChEMBL document CHEMBL1141723, “Specific targeting of metzincin family members with small-molecule inhibitors: progress toward a multifarious challenge” (Bioorg Med Chem, 2008)
